Inconclusive results are not listed.
biological target: Virion infectivity factor (Human immunodeficiency virus type 1 group M subtype B (isolate BH10)) + Virion infectivity factor (Human immunodeficiency virus type 1 group M subtype B (isolate BRU/LAI)) + Virion infectivity factor (Human immunodeficiency virus type 1 group M subtype B (isolate PCV12)) + Virion infectivity factor (Human immunodeficiency virus type 1 group M subtype B (isolate HXB2)) + DNA dC->dU-editing enzyme APOBEC-3G (Homo sapiens) (UniProt P69720+P69721+P69722+P69723+Q9HC16); assay: inhibitors of Vif binding to APOBEC3G peptide, primary screen, biochemical, TR-FRET, GST-Vif 1-94, biotin-A3G peptide, dose response retest (AID 1117319);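 also: Vif residues 1-94 fused to GST binding biotinylated APOBEC3G peptide 110-148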

| SMILES | IC50 |
| --- | --- |
| COc1cccc(-n2c(/C=C/c3ccc(O)c(O)c3)nc3ccccc3c2=O)c1 | 10.7 µM |
| COCCCNC(=O)/C(C#N)=C/c1ccc(OCC(=O)O)c(OC)c1 | 4.12 µM |
| Fc1ccccc1/C=C1\CCCC2=C1Nc1ncnn1C2c1ccccc1F (stereo not given) | 38.3 µM |
| CCc1cccc(NC(=O)CCS(=O)(=O)c2ccc(Br)cc2)c1 | 14.7 µM |
| CC1=CC(=Nc2c(C)n(C)n(-c3ccccc3)c2=O)C=CC1=O | 5.02 µM |
| COc1ccc(NC(=O)CCCSc2ccccc2)cc1 | 47.3 µM |
| O=C(O)c1cccc(-n2cccc2/C=C/[N+](=O)[O-])c1 | 5.49 µM |
| CC1C=CC=CC=CC=CC=CC=CC=CC(OC2OC(C)C(O)C(N)C2O)CC2OC(O)(CC(O)CC(O)C(O)CCC(O)CC(O)CC(=O)OC(C)C(C)C1O)CC(O)C2C(=O)O (stereo not given) | 0.87 µM |
| CC1=C(C#N)C(=O)N(C2CCS(=O)(=O)C2)C(=O)/C1=C\c1ccc(C)o1 (stereo not given) | 1.42 µM |
| CNc1ccc(Br)cc(C(=O)/C=C/c2cc(OC)ccc2OC)c1=O | 3.6 µM |
| CCOc1cccc(=O)c2c(C)oc(C)c12 | 6.16 µM |
| O=C1NC(=O)N(c2cccc(Cl)c2)C(=O)/C1=C\c1ccc(Sc2nc3ccccc3[nH]2)o1 | 10.1 µM |
| Cc1cnc(NC(=O)CSc2nnc(CNc3ccc(F)cc3)n2CC2CCCO2)s1 (stereo not given) | 53 µM |
| O=C1NC(c2ccc(Br)cc2)=N/C1=C/c1ccco1 | 7.41 µM |
| NC(=O)c1cc(N)ccc1N1CCCC1 | 1.12 µM |
| CCc1cc2cc(C)cc(C)c2nc1SCC(=O)N1CCN(C(=O)c2ccco2)CC1 | 12.6 µM |
| Clc1ccc(OCc2nn3c(-c4ccco4)nnc3s2)c(Cl)c1 | 63.1 µM |
| O=[n+]1c2c(n([O-])c3cc(Cl)ccc31)CCCC2 | 9.81 µM |
| O=c1oc2c(O)c(O)cc3c(=O)oc4c(O)c(O)cc1c4c23 | 0.45 µM |
| CC(C)(C)C(=O)OCc1nc(-c2ccc(O)c(O)c2)cs1 | 17.1 µM |
| O=C1/C(=C\c2ccco2)SC(=S)N1c1ccccc1 | 2.58 µM |
| CC(=O)N1CCN(c2ccc(NCc3ccc4c(c3)OCO4)cc2)CC1 | 3.78 µM |
| O=C1C=C(c2c(O)ccc3ccccc23)c2ccccc2C1=O | 2.54 µM |
| Cc1ccccc1NS(=O)(=O)c1ccc2[nH]cc(C(=O)N(C)Cc3ccco3)c(=O)c2c1 | 56.8 µM |
| C=CCN=c1scc(C)n1/N=C/c1ccc(O)c(O)c1 | 15.4 µM |
| Cc1ccc(N2C(=O)/C(=C/c3ccc(CN(CCC#N)S(C)(=O)=O)o3)C(=O)NC2=S)cc1 | 8.32 µM |
| CN(C)c1cc(Cl)c2nonc2c1N | 11.9 µM |
| Cc1cc(C)cc(Nc2ccc(C(=O)O)cc2N)c1 | 26.1 µM |

| SMILES | IC50 |
| --- | --- |
| CCCCC1=CC2=CC(=O)C(C)(OC(=O)c3cnc4ccccc4n3)C(=O)C2=CO1 (stereo not given) | 12.4 µM |
| c1coc(-c2nc3ccccc3nc2-c2ccco2)c1 | 1.39 µM |
| CC(/C=C1\SC(=S)N(CCCC(=O)Nc2ccc(C(=O)O)c(O)c2)C1=O)=C\c1ccccc1 | 5.1 µM |
| O=c1cc(-c2ccc(O)cc2)oc2cc(O)c(C3OC(CO)C(O)C(O)C3O)c(O)c12 (stereo not given) | 7.05 µM |
| O=C(NN(C(=O)c1ccccc1)c1ccccc1)c1ccccc1 | 70.7 µM |
| O=C(Nc1ccc(Cl)c(-c2nc3ccccc3[nH]2)c1)c1cccnc1 | 79.7 µM |
| Cc1ccc[n+](-c2[nH]c(=O)sc2/C=N/NC(=O)c2ccccc2[O-])c1 | 51.4 µM |
| Nc1ccc(Nc2ccccc2)c(S(=O)(=O)O)c1 | 5.26 µM |
| COc1ccc(OC)c(Nc2nc(-c3ccc(O)c(O)c3)cs2)c1 | 4.19 µM |
| CCOc1ccc2[nH]c(=O)c(CN(Cc3nnnn3Cc3ccco3)C3CCCCC3)cc2c1 | 4.82 µM |
| O=C1CC(Nc2ccc(N3CCOCC3)cc2)C(=O)N1C1CCCCC1 (stereo not given) | 2.74 µM |
| O=C(Nc1ccc2nc(-c3ccco3)c(-c3ccco3)nc2c1)N1CCCCCC1 | 0.58 µM |
| O=C1NC(=S)SC1=C1CCCC1 | 6.2 µM |
| COC(=O)CCC(=O)OC1(C)C(=O)C2=CN(CCCOC(C)C)C(c3ccc(OC)cc3)=CC2=C(Br)C1=O (stereo not given) | 11.5 µM |
| CC[C@H](C)/C=C(C)/C=C/C1=CC2=CC(=O)[C@]3(C)OC(=O)[C@@H](C(C)=O)[C@@H]3C2=CO1 | 13 µM |
| CCOc1ccc(NCC2CCOC(C)(C)C2)cc1 (stereo not given) | 9.47 µM |
| CN(CC(=O)Nc1cccc(F)c1)C(=O)c1cccc(-n2cccc2)c1 | 8.08 µM |
| CC(=O)Nc1ccc(S(=O)(=O)N2CCN(Cc3ccccn3)CC2)cc1 | 77.4 µM |
| O=C(Cc1cccs1)N/N=C/C=C/c1ccco1 | 3.68 µM |
| CCOc1ccc(NC(=O)CCS(=O)(=O)c2ccc(Br)cc2)cc1 | 14.2 µM |
| O=C1OC(c2ccc(F)cc2)=C/C1=C\c1ccc([N+](=O)[O-])o1 | 8.61 µM |
| O=c1nc2s/c(=C\c3ccco3)c(=O)n2nc1Cc1ccccc1 | 4.18 µM |
| CCCCOc1ccc(C(=O)NCC(=O)NCC(=O)OCC)cc1 | 76.9 µM |
| CC(C)OP(=O)(OC(C)C)C(O)c1ccc(N(C)C)cc1 (stereo not given) | 75.9 µM |
| O=C(N/N=C/c1cccnc1)c1cc(O)c(O)c(O)c1 | 21.7 µM |
| CC1=C(C#N)C(=O)N(C2CCS(=O)(=O)C2)C(=O)/C1=C\c1ccco1 (stereo not given) | 0.62 µM |
| c1cnc(N2CCN(c3cnccn3)CC2)nc1 | 14.3 µM |

Reference: PubChem BioAssay AID1117319 (Southern Research Institute, 2015)
